According to patent US20260284042A1, “DOSING REGIMEN” (ViiV Healthcare UK (No.3) Limited, priority 2024, published 2026):
Read-outs that look alike come from different tables or passages of the source.

Tests used:
HIV-1 strains = conditions: integrase strand transfer inhibitor; antiviral activity against a broad range of HIV-1 strains; cited from earlier work
[1] = cited from earlier work
[2] = Cabotegravir population pharmacokinetic (PopPK) model, CAB 200 mg/mL IM injections; design: species or system human
Experimental: In a first set of simulations, a cabotegravir population pharmacokinetic (PopPK) model was built based on PK data following cabotegravir (CAB) 200 mg/mL intramuscular (IM) injections collected in 16 historical studies (Population pharmacokinetics of cabotegravir following administration of oral tablet and long-acting intramuscular injection in adult HIV-1-infected and uninfected subjects. Han K, Baker M, Lovern M, Paul P, Xiong Y, Patel P, Moore K P, Seal C S, Cutrell A G, D'Amico R D, Benn P D, Landovitz R J, Marzinke M A, Spreen W R, Ford S L. Br J Clin Pharmacol. 2022 October;88 (10): 4607-4622. doi: 10.1111/bcp. 15439. Epub 2022 Jul. 4. PMID: 35695476) and updated based on PK data from 19 studies: LAI116585, LAI117010, LAI117011, LAI117020, 201741, 201479, 201480, 205696, LAI116482 (LATTE), LAI115428, LAI116815, 200056 (LATTE-2), 201120 (ECLAIR), 201103 (HPTN077), 201584 (FLAIR), 201585 (ATLAS), 207966 (ATLAS-2M), 201738 (HPTN 083) and 201739 (HPTN 084). A total of 34,850 CAB plasma concentrations collected at various time points from 2,694 participants were used to build this PopPK model.

## C[C@H]1CO[C@@H]2Cn3cc(C(=O)NCc4ccc(F)cc4F)c(=O)c(O)c3C(=O)N12 [Cabotegravir, (3S, 11aR)-N-((2,4-difluorophenyl)methyl)-6-hydroxy-3-methyl-5,7-dioxo-2,3,5,7,11,11a-hexahydro (1,3) oxazolo (3,2-a)pyrido (1,2-d) pyrazine-8-carboxamide]
HIV-1 strains
  potency: subnanomolar
[1]; Phase 3 study 201738 (HPTN 083), people assigned male at birth
  10th percentile of Ctau observed: 1.05 µg/mL
[1]; Phase 3 study 201739 (HPTN 084), people assigned female at birth
  10th percentile of Ctau observed: 1.39 µg/mL
[2]
  Apparent central clearance (CL/F), higher in current smokers: 16.4%
  KA2 versus BMI: decreased with increasing BMI
  KA2 versus needle length: lower with longer needle length
[2]; CAB 200 mg/mL IM injections
  Long-acting intramuscular gluteal absorption rate constant (KA2), lower in people assigned female at birth than male at birth: 46.5%
[2]; after adjusting for all covariates
  KA2, higher in study 201120 (ECLAIR) than other studies: 22.8%
[2]; people assigned female at birth
  KA2 versus split injections: not associated with split injections
[2]; people assigned male at birth
  KA2, higher if the injection was split: 50.8%
